Laboratory results reported in ChEMBL document CHEMBL1130819, “Synthesis and biological evaluation of 1,2-disubstituted carbonucleosides of 2-amino-6-substituted purine and 8-azapurine” (Bioorg Med Chem Lett, 1998).
In brackets after ≈: the same amount, converted by molar mass.

Columns and labels:
[1] = test system: L1210; test: Antitumor activity was evaluated against L1210 cell line; type: functional, cell-based; conditions: Mus musculus
[2] = test system: CCRF-CEM; test: Antitumor activity was evaluated against CEM cell line; type: functional, cell-based; conditions: Homo sapiens
[3] = test system: MOLT-4; test: Antitumor activity was evaluated against Molt4/C8 cell line; type: functional, cell-based; conditions: Homo sapiens
[4] = test system: Human alphaherpesvirus 3; test: Antiviral activity against Varicella-Zoster virus(YS/R strain); type: functional, organism-based
[5] = test system: Human alphaherpesvirus 3; test: Antiviral activity against Varicella-Zoster virus(OKA strain); type: functional, organism-based
[6] = test system: Human alphaherpesvirus 3; test: Antiviral activity against Varicella-Zoster virus (07/1strain); type: functional, organism-based

SMILES	IC50 [1]	IC50 [2]	IC50 [3]	EC50 [4]	EC50 [5]	EC50 [6]
Nc1nc(O)c2nnn([C@H]3CCC[C@H]3CO)c2n1	80 µM	86.7 µM	86 µM	–	–	–
Nc1nc(O)c2ncn([C@H]3CCC[C@H]3CO)c2n1	> 200 µM	> 200 µM	> 200 µM	–	–	–
Nc1nc(N)c2ncn([C@H]3CCC[C@H]3CO)c2n1	113 µM	90 µM	147 µM	37 µg/mL (≈ 149 µM)	–	–

Stronger by IC50 [1], values ahead:

IC50 [1]	IC50 [2]	IC50 [3]	EC50 [4]	EC50 [5]	EC50 [6]	SMILES
77.2 µM	90.5 µM	120 µM	50 µg/mL (≈ 201 µM)	32 µg/mL (≈ 128 µM)	45 µg/mL (≈ 181 µM)	Nc1nc(N)c2nnn([C@H]3CCC[C@H]3CO)c2n1
71.4 µM	83 µM	49.1 µM	–	–	–	Nc1nc(Cl)c2ncn([C@H]3CCC[C@H]3CO)c2n1
71 µM	53 µM	75.3 µM	–	–	–	Nc1nc(Cl)c2nnn([C@H]3CCC[C@H]3CO)c2n1
